{"source": "patent US5763442A", "about": "“Anti-parasitic activity” (Universiteit Van Pretoria, priority 1995, dated 1998)", "key": {"[1]": {"test_system": "Plasmodium falciparum (RB-9)", "assay": "3H-hypoxanthine uptake, chloroquine resistant strain (RB-9 [sic])", "assay_type": "cell-based", "conditions": "for PERCENTAGE INHIBITION (3H-hypoxanthine uptake): RB-9 (so in the source)", "experimental": "(§1) The following experiment was done to confirm previous results which were obtained microscopically and details of which are set out in Example 1.\n(§2) For this experiment the same two strains of P. falciparum, as used in Example 1 (RB-1 and Fab-9) were again used. Infected erythrocytes were diluted with human O-positive red blood cells to a parasitaemia of 0.2-0.9% and suspended to 3% in RPMI containing 44 mg/l hypxanthine and 10% human type serum. Aliquots (100 μl) of the suspension were dispensed into the wells of 96-well microtitre plates. To these suspensions 100 μl of the medium were added containing either chloroquine or B669 alone or a combination of chloroquine and B669. Relevant solvent controls were included. Negative control wells were also included containing uninfected red blood cells. The plates were incubated at 38° C. in a desiccator gassed with 5% O2, 5% CO2 and 90% N2. After 24 hours 100 μl culture medium of each well was replaced with […] of hypoxathine--free medium containing 10% human serum and 0,5μ Ci^3 H-hypoxanthine and incubated for a further 18 hours. The contents of the wells were then harvested on to glass fibre filters. The filters were washed with distilled water, dried, haemoglobin dissolved in a sodium bicarbonate solution and placed in scintillation vials containing 4 ml scintillation fluid and counted for 5 min in a liquid scintillation counter.\n(§3) The percentage inhibition was calculated as follows: [formula] where CPM was the mean of two values of counts per minute for each treatment."}, "[2]": {"test_system": "Plasmodium falciparum (Fab-9)", "assay": "3H-hypoxanthine uptake, chloroquine sensitive strain Fab-9", "assay_type": "cell-based", "conditions": "for PERCENTAGE INHIBITION (3H-hypoxanthine uptake): Fab-9", "experimental": "as §1, §2, §3"}, "[3]": {"conditions": "B669 0.125 μg/ml + chloroquine 31 nM"}, "[4]": {"conditions": "B669 0.125 μg/ml + chloroquine 62 nM"}, "[5]": {"conditions": "B669 0.125 μg/ml + chloroquine 250 nM"}, "[6]": {"conditions": "B669 0.125 μg/ml + chloroquine 500 nM"}, "[7]": {"conditions": "B669 0.125 μg/ml + chloroquine 1000 nM"}, "[8]": {"conditions": "B669 0.25 μg/ml + chloroquine 62 nM"}, "[9]": {"conditions": "B669 0.25 μg/ml + chloroquine 250 nM"}, "[10]": {"conditions": "B669 0.25 μg/ml + chloroquine 500 nM"}, "[11]": {"conditions": "B669 0.25 μg/ml + chloroquine 1000 nM"}, "[12]": {"conditions": "B669 0.5 μg/ml + chloroquine 62 nM"}, "[13]": {"conditions": "B669 0.5 μg/ml + chloroquine 125 nM"}, "[14]": {"conditions": "B669 0.5 μg/ml + chloroquine 250 nM"}, "[15]": {"conditions": "B669 0.5 μg/ml + chloroquine 500 nM"}, "[16]": {"conditions": "B669 0.5 μg/ml + chloroquine 1000 nM"}, "[17]": {"conditions": "B669 1.0 μg/ml + chloroquine 31 nM"}, "[18]": {"conditions": "B669 1.0 μg/ml + chloroquine 62 nM"}, "[19]": {"conditions": "B669 1.0 μg/ml + chloroquine 125 nM"}, "[20]": {"conditions": "B669 1.0 μg/ml + chloroquine 250 nM"}, "[21]": {"conditions": "B669 1.0 μg/ml + chloroquine 500 nM"}, "[22]": {"conditions": "B669 1.0 μg/ml + chloroquine 1000 nM"}}}
{"smiles": "c1ccc(Nc2cc3nc4ccccc4n(-c4ccccc4)c-3cc2=NC2CCCCC2)cc1", "note": "[Compound B669, N,5-bis(phenyl)-3,5-dihydro-3-(cyclohexylimino)-2-phenazinamine]", "values": [{"measurement": "PERCENTAGE INHIBITION (3H-hypoxanthine uptake)", "setting": "[1]; [3]", "result": 15.2, "unit": "%"}, {"measurement": "PERCENTAGE INHIBITION (3H-hypoxanthine uptake)", "setting": "[1]; [4]", "result": 12.2, "unit": "%"}, {"measurement": "PERCENTAGE INHIBITION (3H-hypoxanthine uptake)", "setting": "[1]; [5]", "result": 100, "unit": "%"}, {"measurement": "PERCENTAGE INHIBITION (3H-hypoxanthine uptake)", "setting": "[1]; [6]", "result": 100, "unit": "%"}, {"measurement": "PERCENTAGE INHIBITION (3H-hypoxanthine uptake)", "setting": "[1]; [7]", "result": 100, "unit": "%"}, {"measurement": "PERCENTAGE INHIBITION (3H-hypoxanthine uptake)", "setting": "[1]; [8]", "result": 26.4, "unit": "%"}, {"measurement": "PERCENTAGE INHIBITION (3H-hypoxanthine uptake)", "setting": "[1]; [9]", "result": 100, "unit": "%"}, {"measurement": "PERCENTAGE INHIBITION (3H-hypoxanthine uptake)", "setting": "[1]; [10]", "result": 98.8, "unit": "%"}, {"measurement": "PERCENTAGE INHIBITION (3H-hypoxanthine uptake)", "setting": "[1]; [11]", "result": 95, "unit": "%"}, {"measurement": "PERCENTAGE INHIBITION (3H-hypoxanthine uptake)", "setting": "[1]; [12]", "result": 16.6, "unit": "%"}, {"measurement": "PERCENTAGE INHIBITION (3H-hypoxanthine uptake)", "setting": "[1]; [13]", "result": 92, "unit": "%"}, {"measurement": "PERCENTAGE INHIBITION (3H-hypoxanthine uptake)", "setting": "[1]; [14]", "result": 95, "unit": "%"}, {"measurement": "PERCENTAGE INHIBITION (3H-hypoxanthine uptake)", "setting": "[1]; [15]", "result": 100, "unit": "%"}, {"measurement": "PERCENTAGE INHIBITION (3H-hypoxanthine uptake)", "setting": "[1]; [16]", "result": 100, "unit": "%"}, {"measurement": "PERCENTAGE INHIBITION (3H-hypoxanthine uptake)", "setting": "[1]; [17]", "result": 58.6, "unit": "%"}, {"measurement": "PERCENTAGE INHIBITION (3H-hypoxanthine uptake)", "setting": "[1]; [18]", "result": 100, "unit": "%"}, {"measurement": "PERCENTAGE INHIBITION (3H-hypoxanthine uptake)", "setting": "[1]; [19]", "result": 100, "unit": "%"}, {"measurement": "PERCENTAGE INHIBITION (3H-hypoxanthine uptake)", "setting": "[1]; [20]", "result": 100, "unit": "%"}, {"measurement": "PERCENTAGE INHIBITION (3H-hypoxanthine uptake)", "setting": "[1]; [21]", "result": 100, "unit": "%"}, {"measurement": "PERCENTAGE INHIBITION (3H-hypoxanthine uptake)", "setting": "[1]; [22]", "result": 100, "unit": "%"}, {"measurement": "effects of the experimental drug at low chloroquine concentrations", "setting": "[1]; chloroquine 31 and 62 nM", "result": "Effects of the experimental drug was also seen"}, {"measurement": "effect on sensitivity of chloroquine sensitive strain to chloroquine", "setting": "[2]; 3H-hypoxanthine uptake", "result": "did not increase the sensitivity"}, {"measurement": "sensitivity of chloroquine sensitive strain to B669 alone", "setting": "[2]; B669 alone 0.125-1.0 μg/ml", "result": "sensitive to B669 alone"}, {"measurement": "PERCENTAGE INHIBITION (3H-hypoxanthine uptake)", "setting": "[2]; [3]", "result": 12.9, "unit": "%"}, {"measurement": "PERCENTAGE INHIBITION (3H-hypoxanthine uptake)", "setting": "[2]; [4]", "result": 7.4, "unit": "%"}, {"measurement": "PERCENTAGE INHIBITION (3H-hypoxanthine uptake)", "setting": "[2]; B669 0.125 μg/ml + chloroquine 125 nM", "result": 68.3, "unit": "%"}, {"measurement": "PERCENTAGE INHIBITION (3H-hypoxanthine uptake)", "setting": "[2]; [5]", "result": 81.4, "unit": "%"}, {"measurement": "PERCENTAGE INHIBITION (3H-hypoxanthine uptake)", "setting": "[2]; [6]", "result": 100, "unit": "%"}, {"measurement": "PERCENTAGE INHIBITION (3H-hypoxanthine uptake)", "setting": "[2]; [7]", "result": 100, "unit": "%"}, {"measurement": "PERCENTAGE INHIBITION (3H-hypoxanthine uptake)", "setting": "[2]; B669 0.25 μg/ml + chloroquine 31 nM", "result": 21.0, "unit": "%"}, {"measurement": "PERCENTAGE INHIBITION (3H-hypoxanthine uptake)", "setting": "[2]; [8]", "result": 0, "unit": "%"}, {"measurement": "PERCENTAGE INHIBITION (3H-hypoxanthine uptake)", "setting": "[2]; B669 0.25 μg/ml + chloroquine 125 nM", "result": 34.9, "unit": "%"}, {"measurement": "PERCENTAGE INHIBITION (3H-hypoxanthine uptake)", "setting": "[2]; [9]", "result": 85.5, "unit": "%"}, {"measurement": "PERCENTAGE INHIBITION (3H-hypoxanthine uptake)", "setting": "[2]; [10]", "result": 100, "unit": "%"}, {"measurement": "PERCENTAGE INHIBITION (3H-hypoxanthine uptake)", "setting": "[2]; [11]", "result": 100, "unit": "%"}, {"measurement": "PERCENTAGE INHIBITION (3H-hypoxanthine uptake)", "setting": "[2]; B669 0.5 μg/ml + chloroquine 31 nM", "result": 60.5, "unit": "%"}, {"measurement": "PERCENTAGE INHIBITION (3H-hypoxanthine uptake)", "setting": "[2]; [12]", "result": 91.7, "unit": "%"}, {"measurement": "PERCENTAGE INHIBITION (3H-hypoxanthine uptake)", "setting": "[2]; [13]", "result": 93.6, "unit": "%"}, {"measurement": "PERCENTAGE INHIBITION (3H-hypoxanthine uptake)", "setting": "[2]; [14]", "result": 100, "unit": "%"}, {"measurement": "PERCENTAGE INHIBITION (3H-hypoxanthine uptake)", "setting": "[2]; [15]", "result": 100, "unit": "%"}, {"measurement": "PERCENTAGE INHIBITION (3H-hypoxanthine uptake)", "setting": "[2]; [16]", "result": 100, "unit": "%"}, {"measurement": "PERCENTAGE INHIBITION (3H-hypoxanthine uptake)", "setting": "[2]; [17]", "result": 98.8, "unit": "%"}, {"measurement": "PERCENTAGE INHIBITION (3H-hypoxanthine uptake)", "setting": "[2]; [18]", "result": 95.9, "unit": "%"}, {"measurement": "PERCENTAGE INHIBITION (3H-hypoxanthine uptake)", "setting": "[2]; [19]", "result": 100, "unit": "%"}, {"measurement": "PERCENTAGE INHIBITION (3H-hypoxanthine uptake)", "setting": "[2]; [20]", "result": 100, "unit": "%"}, {"measurement": "PERCENTAGE INHIBITION (3H-hypoxanthine uptake)", "setting": "[2]; [21]", "result": 100, "unit": "%"}, {"measurement": "PERCENTAGE INHIBITION (3H-hypoxanthine uptake)", "setting": "[2]; [22]", "result": 100, "unit": "%"}, {"measurement": "direct anti-malaria activity", "setting": "[2]; especially chloroquine sensitive strain", "result": "Direct anti-malaria activity"}]}
